What is called IC50 is the concentration that gives 50% inhibition. A word on the MRT: it is a mean duration of stay, worked out from the concentration-time curve. One may read the Papp A→B as the apparent permeability from the apical to the basolateral side of a cell layer. By half-life is commonly meant the time in which the quantity being followed falls by half. A high value points to slow decline. For orientation: Cmax means the highest concentration seen after dosing. The term efflux ratio denotes the permeability from basolateral to apical divided by that in the opposite direction, in the common usage. The term Tmax denotes the time at which the peak concentration occurs. The term AUC denotes the area under the concentration-time curve, a measure of exposure. Read a high AUC as more exposure.

Data set [1] in a line: Toxicity in BALB/c mouse xenografted with human HCT-116 cells expressing MTAP-/- assessed as body weight loss at 50 mg/kg, po qd measured for 18 days relative to control. To be noted: in vivo, 432 h, time 18 day. Format: organism-based. For orientation: Xenograft models place foreign cells or tissue in a host animal.
Data set [2] concerns the target Voltage-gated inwardly rectifying potassium channel KCNH2 (Homo sapiens, UniProt Q12809). Kind of data set: Inhibition of hERG potassium ion channel expressed in CHO cells at -80 mV holding potential treated for 2.5 mins by Q patch-clamp method. The data set is classed as toxicity, cell-based. (In general: hERG is a cardiac potassium channel; its block is linked to QT prolongation.)

For another data set, the target named is Cytochrome P450 2D6 (Homo sapiens, UniProt P10635). Put plainly: Inhibition of CYP2D6 in human liver microsomes using dextromethorphan as substrate preincubated for 10 mins followed by substrate addition measured after 10 mins in presence of NADPH by LC-MS analysis. The data set is classed as ADME, Microsome. Background: Microsomes from liver hold many membrane-bound enzymes, among them those of drug oxidation.

Data set [3] deals with HCT-116. Put plainly: Antitumor activity against human HCT-116 cells expressing MTAP-/- xenografted in BALB/c mouse assessed as tumor regression at 50 mg/kg, po qd measured after 18 days relative to control. Format: functional. To be noted: time 18 day.
Data set [4] in a line: MRT in ICR mouse at 10 mg/kg, po via gavage measured for 0.083 to 24 hrs by LC-MS analysis. The data set is classed as ADME, organism-based. To be noted: in vivo, time 0.083-24 hrs.
The test system of data set [5] is HCT-116. Put plainly: Antitumor activity against human HCT-116 cells expressing MTAP-/- xenografted in BALB/c mouse assessed as decrease in tumor volume at 50 mg/kg, po qd measured after 6 days. Format: functional, organism-based. To be noted: time 6.0 day.
Data set [6] in a line: Intrinsic clearance in human liver microsomes at […] incubated for 5 to 60 mins in presence of NADPH by LC-MS analysis. Format: ADME, Microsome. To be noted: time 5-60 min.
The nature of data set [7]: Apparent permeability of the compound across apical to basolateral side in MDCKII-MDR1 cells at 2 uM incubated for 2.5 hrs by LC-MS/MS analysis. Format: ADME, cell-based, Canis lupus familiaris. To be noted: dog, MDCK-MDR1.
Data set [8] concerns the target S-adenosylmethionine synthase isoform type-2 (Homo sapiens, UniProt P31153). Kind of data set: Inhibition of recombinant MAT2A (unknown origin) expressed in baculovirus infected Sf9 insect cells using L-methionine as substrate preincubated for 15 mins followed by substrate addition measured after 60 mins by Kinase-Glo Luminescent assay.
The nature of data set [9]: Half life in ICR mouse at 10 mg/kg, po via gavage measured for 0.083 to 24 hrs by LC-MS analysis. To be noted: in vivo, time 0.083-24 hrs. Format: ADME, organism-based.
Data set [10] deals with UDP-glucuronosyltransferases (UGTs). Kind of data set: Inhibition of UGT (unknown origin) preincubated for 10 mins followed by substrates addition measured after 10 mins by LC-MS analysis. Format: ADME, protein assay, Homo sapiens.
For the next data set, the target named is Cytochrome P450 2C19 (Homo sapiens, UniProt P33261). Put plainly: Inhibition of CYP2C19 in human liver microsomes using S-mephenytoin as substrate preincubated for 10 mins followed by substrate addition measured after 10 mins in presence of NADPH by LC-MS analysis. The data set is classed as ADME, Microsome.
Data set [11] in a line: Toxicity in BALB/c mouse xenografted with human HCT-116 cells expressing MTAP-/- assessed as drug tolerance at 50 mg/kg, po qd measured for 18 days. To be noted: in vivo, 432 h, time 18 day. The data set is classed as organism-based.
Data set [12] concerns HCT-116. Put plainly: Antiproliferative activity against human HCT-116 cells assessed as inhibition of cell proliferation incubated for 4 days by fluorescence based assay. Format: functional. To be noted: HCT-116, 96 h.
A short description of data set [13]: Cmax in ICR mouse at 10 mg/kg, po via gavage measured for 0.083 to 24 hrs by LC-MS analysis. The data set is classed as ADME, organism-based. More on the design: time upper 24 hrs, dose 10 mg/kg, time lower 0.083 hrs, route po. To be noted: in vivo.
Data set [14] in a line: Efflux ratio of apparent permeability from basolateral to apical side over apical to basolateral side in MDCKII-MDR1 cells at 2 uM incubated for 2.5 hrs by LC-MS/MS analysis. The data set is classed as ADME, cell-based, Canis lupus familiaris. To be noted: dog, MDCK-MDR1.
The target in the next data set is T1, Cytochrome P450 1A2 (Homo sapiens, UniProt P05177).
T1 sequence (P05177 whole entry): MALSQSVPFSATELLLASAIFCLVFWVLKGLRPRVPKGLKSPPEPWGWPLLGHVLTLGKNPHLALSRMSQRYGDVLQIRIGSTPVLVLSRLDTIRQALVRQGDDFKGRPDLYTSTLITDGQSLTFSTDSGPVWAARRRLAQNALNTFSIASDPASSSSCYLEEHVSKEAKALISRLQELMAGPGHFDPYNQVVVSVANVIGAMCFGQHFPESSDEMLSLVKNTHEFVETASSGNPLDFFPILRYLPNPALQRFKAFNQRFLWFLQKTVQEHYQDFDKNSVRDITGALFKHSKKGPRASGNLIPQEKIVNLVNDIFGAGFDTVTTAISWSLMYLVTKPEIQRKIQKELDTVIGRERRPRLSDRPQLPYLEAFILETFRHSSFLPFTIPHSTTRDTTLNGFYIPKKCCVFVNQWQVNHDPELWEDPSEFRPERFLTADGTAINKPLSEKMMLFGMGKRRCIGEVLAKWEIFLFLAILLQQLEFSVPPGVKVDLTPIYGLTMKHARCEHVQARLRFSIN
Put plainly: Inhibition of CYP1A2 in human liver microsomes using phenacetin as substrate preincubated for 10 mins followed by substrate addition measured after 10 mins in presence of NADPH by LC-MS analysis. The data set is classed as ADME, Microsome.

The nature of data set [15]: Tmax in ICR mouse at 10 mg/kg, po via gavage measured for 0.083 to 24 hrs by LC-MS analysis. The data set is classed as ADME, organism-based. To be noted: in vivo, time 0.083-24 hrs.
Data set [16] relates to HCT-116. Kind of data set: Antiproliferative activity against human HCT-116 cells expressing MTAP-/- assessed as inhibition of cell proliferation incubated for 4 days by fluorescence based assay. The data set is classed as functional. To be noted: HCT-116, 96 h.
Data set [17] can be described thus: AUC in ICR mouse at 10 mg/kg, po via gavage measured for 0.083 to 24 hrs by LC-MS analysis. The data set is classed as ADME, organism-based. The arrangement: dose 10 mg/kg, time upper 24 hrs, time lower 0.083 hrs, route po. To be noted: in vivo.
A further data set addresses Cytochrome P450 3A4 (Homo sapiens, UniProt P08684). Put plainly: Inhibition of CYP3A4 in human liver microsomes using midazolam as substrate preincubated for 10 mins followed by substrate addition measured after 10 mins in presence of NADPH by LC-MS analysis. The data set is classed as ADME, Microsome.
The target in another data set is Cytochrome P450 2C9 (Homo sapiens, UniProt P11712). Kind of data set: Inhibition of CYP2C9 in human liver microsomes using diclofenac as substrate preincubated for 10 mins followed by substrate addition measured after 10 mins in presence of NADPH by LC-MS analysis. The data set is classed as ADME, Microsome.

Active and inactive are the calls of the source. The calls are words filed in the database; no cut-off is given here.

Sequence of Cytochrome P450 2C9 (P11712 whole entry): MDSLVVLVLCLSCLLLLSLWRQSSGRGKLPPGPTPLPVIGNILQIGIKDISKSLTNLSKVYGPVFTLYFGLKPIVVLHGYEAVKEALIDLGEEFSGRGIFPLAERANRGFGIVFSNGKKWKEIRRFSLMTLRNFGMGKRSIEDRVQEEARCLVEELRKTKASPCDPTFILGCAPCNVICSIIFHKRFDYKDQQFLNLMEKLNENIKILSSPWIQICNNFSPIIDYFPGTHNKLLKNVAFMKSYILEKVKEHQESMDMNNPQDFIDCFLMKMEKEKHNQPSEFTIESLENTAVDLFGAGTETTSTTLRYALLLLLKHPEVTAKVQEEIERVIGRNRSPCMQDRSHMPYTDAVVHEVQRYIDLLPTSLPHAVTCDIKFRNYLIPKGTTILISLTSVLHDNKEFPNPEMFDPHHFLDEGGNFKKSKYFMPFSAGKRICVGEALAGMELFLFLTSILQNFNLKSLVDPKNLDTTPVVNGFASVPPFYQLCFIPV
Sequence of Cytochrome P450 2D6 (P10635 whole entry): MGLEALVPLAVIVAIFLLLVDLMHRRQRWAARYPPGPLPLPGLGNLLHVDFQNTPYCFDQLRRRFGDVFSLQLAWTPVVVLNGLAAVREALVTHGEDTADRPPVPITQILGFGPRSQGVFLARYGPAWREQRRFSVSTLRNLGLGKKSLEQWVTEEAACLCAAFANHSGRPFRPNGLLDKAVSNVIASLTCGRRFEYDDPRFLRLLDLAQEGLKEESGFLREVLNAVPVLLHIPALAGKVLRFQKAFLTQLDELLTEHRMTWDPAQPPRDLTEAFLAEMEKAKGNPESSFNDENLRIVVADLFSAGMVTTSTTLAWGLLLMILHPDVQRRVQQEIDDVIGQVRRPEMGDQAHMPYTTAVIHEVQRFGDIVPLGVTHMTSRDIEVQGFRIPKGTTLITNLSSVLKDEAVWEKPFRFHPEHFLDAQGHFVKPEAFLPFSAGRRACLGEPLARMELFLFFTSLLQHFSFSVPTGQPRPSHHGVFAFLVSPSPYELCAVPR
Sequence of S-adenosylmethionine synthase isoform type-2 (P31153 whole entry, canonical isoform): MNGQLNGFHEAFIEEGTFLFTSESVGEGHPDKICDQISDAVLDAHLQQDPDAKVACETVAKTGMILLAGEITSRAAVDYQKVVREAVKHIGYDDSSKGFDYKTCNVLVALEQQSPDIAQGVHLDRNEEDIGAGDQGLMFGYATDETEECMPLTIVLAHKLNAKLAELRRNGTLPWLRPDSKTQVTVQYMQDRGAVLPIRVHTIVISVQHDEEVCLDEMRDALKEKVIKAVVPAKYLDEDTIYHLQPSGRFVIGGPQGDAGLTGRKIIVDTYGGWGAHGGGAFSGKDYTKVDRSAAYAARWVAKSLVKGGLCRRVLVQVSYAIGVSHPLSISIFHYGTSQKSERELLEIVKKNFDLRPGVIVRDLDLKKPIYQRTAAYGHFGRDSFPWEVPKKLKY
Sequence of Cytochrome P450 2C19 (P33261 whole entry): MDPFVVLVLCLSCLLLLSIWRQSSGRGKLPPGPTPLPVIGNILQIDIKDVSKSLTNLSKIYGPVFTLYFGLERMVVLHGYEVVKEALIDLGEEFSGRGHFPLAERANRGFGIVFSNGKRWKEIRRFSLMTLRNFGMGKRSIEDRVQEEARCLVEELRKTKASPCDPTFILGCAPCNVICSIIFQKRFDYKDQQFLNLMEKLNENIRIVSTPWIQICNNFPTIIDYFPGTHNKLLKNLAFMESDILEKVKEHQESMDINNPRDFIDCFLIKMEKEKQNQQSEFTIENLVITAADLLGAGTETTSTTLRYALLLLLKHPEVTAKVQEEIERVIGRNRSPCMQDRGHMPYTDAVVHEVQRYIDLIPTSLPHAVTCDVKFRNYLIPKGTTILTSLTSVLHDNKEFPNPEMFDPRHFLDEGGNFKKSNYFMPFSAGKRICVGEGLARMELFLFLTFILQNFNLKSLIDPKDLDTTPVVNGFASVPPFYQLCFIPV
Sequence of Voltage-gated inwardly rectifying potassium channel KCNH2 (Q12809 whole entry): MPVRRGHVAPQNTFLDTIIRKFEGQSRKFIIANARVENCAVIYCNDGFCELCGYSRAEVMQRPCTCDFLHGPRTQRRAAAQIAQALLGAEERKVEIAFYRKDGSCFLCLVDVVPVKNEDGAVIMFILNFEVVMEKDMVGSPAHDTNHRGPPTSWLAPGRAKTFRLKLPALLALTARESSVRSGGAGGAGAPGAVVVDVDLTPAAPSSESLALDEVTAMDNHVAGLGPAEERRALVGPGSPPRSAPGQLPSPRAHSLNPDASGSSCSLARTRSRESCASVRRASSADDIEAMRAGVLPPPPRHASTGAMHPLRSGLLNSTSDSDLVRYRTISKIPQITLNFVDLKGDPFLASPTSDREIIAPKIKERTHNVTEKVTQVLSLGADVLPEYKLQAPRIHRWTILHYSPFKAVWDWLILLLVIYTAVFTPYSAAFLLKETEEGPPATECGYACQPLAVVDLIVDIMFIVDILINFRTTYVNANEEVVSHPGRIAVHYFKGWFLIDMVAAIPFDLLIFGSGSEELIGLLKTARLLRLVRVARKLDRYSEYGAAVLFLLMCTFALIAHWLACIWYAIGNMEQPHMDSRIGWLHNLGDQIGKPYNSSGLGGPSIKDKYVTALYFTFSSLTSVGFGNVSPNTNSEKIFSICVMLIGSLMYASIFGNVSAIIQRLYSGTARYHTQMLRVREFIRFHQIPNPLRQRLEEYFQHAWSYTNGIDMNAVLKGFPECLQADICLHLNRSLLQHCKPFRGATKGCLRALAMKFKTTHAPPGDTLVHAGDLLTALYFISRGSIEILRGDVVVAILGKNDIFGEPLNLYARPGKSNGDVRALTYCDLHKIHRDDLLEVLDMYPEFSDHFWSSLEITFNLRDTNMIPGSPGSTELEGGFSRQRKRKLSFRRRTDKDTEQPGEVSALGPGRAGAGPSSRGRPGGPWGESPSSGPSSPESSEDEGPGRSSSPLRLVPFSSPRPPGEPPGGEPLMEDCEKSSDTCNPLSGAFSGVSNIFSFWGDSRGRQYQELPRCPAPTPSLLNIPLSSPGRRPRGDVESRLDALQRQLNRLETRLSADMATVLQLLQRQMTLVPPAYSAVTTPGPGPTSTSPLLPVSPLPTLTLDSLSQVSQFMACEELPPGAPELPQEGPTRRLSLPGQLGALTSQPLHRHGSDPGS
Sequence of Cytochrome P450 3A4 (P08684 whole entry): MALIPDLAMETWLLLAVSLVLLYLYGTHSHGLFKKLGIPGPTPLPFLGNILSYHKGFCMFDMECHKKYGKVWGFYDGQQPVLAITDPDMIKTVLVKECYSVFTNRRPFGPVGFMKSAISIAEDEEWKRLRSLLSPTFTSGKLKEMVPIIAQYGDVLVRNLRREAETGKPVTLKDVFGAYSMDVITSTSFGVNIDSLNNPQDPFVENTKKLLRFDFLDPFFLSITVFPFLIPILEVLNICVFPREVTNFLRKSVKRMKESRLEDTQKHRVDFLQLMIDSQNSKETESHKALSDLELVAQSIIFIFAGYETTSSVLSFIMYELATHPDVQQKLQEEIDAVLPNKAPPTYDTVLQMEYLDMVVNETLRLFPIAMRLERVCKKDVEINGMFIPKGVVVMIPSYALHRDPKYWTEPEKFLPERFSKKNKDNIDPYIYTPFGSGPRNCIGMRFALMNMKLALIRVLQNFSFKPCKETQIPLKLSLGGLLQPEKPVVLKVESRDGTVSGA

Regarding `CCOc1ccc2c(=O)n(-c3ccc4nc5n(c4c3)CCN(C)C5)c(=O)n(-c3ccc(OC(F)F)cc3)c2n1`, the values for the Activity (in data set [1]; in the data set with HCT-116 [3]; in [11]) were 12%, -52% and “Non-Toxic”, respectively. Moreover, the IC50 is over 50 µM in data set [2]; over 50 µM at Cytochrome P450 2D6; 0.026 µM in data set [8]; over 50 µM in data set [10]; 29 µM at Cytochrome P450 2C19; over 10 µM in the data set on HCT-116 [12]. The IC50 on Cytochrome P450 1A2 was over 50 µM; with HCT-116 [16], 0.075 µM; on Cytochrome P450 3A4, 36.9 µM; on Cytochrome P450 2C9, 39.2 µM. The molecule also had an MRT in data set [4] of 4.71 h. Also, the result with HCT-116 [5] was Active. The CLint in data set [6] stood at 20.1 µL/min/mg. For the same molecule, the Papp A→B at 2.5 h, 2 µM in data set [7] was found to be 2.9 ×10⁻⁶ cm/s. The molecule also showed a half-life in [9] of 2.98 h. Besides, the Cmax in data set [13] was 6730 ng/mL. For the same molecule, in data set [14], the efflux ratio at 2.5 h, 2 µM turned out to be 8. The Tmax in data set [15] came to 0.67 h. The same molecule came in with an AUC in data set [17] of 41200 ng·h/mL.

Source of the values: ChEMBL document CHEMBL5380836, “Design and Structural Optimization of Methionine Adenosyltransferase 2A (MAT2A) Inhibitors with High In Vivo Potency and Oral Bioavailability” (J Med Chem, 2023).
